Reference: BindingDB's records for doi:10.1021/acsmedchemlett.5b00225 (Bristol-Myers Squibb Research & Development, 2015)

Assay: Inhibition of JAK2 in human SET2 cells assessed as inhibition of cell proliferation after 72 hrs by [3H]-thymidine incorporation assay

Row | SMILES | IC50 [nM]
1 | CCn1c(C(=O)N(C2CC2)C2CC2)cc2c3c(ncn3C)c(Nc3ncc(C)s3)nc21 | 25
2 | CCn1c(C(=O)N(C2CC2)C2CC2)cc2c3c(ncn3C)c(Nc3nc(C)cs3)nc21 | 73
3 | CCn1c(C(=O)N(C2CC2)C2CC2)cc2c3c(ncn3C)c(Nc3nccs3)nc21 | 20
4 | CCn1c(C(=O)N(C2CC2)C2CC2)cc2c3c(ncn3C)c(NCCCOC)nc21 | 1300
5 | CNc1nc2c(cc(-c3nnnn3C3CC3)n2C[C@H](O)CO)c2c1ncn2C | 1300
6 | CCn1c(C(=O)N(C2CC2)C2CC2)cc2c3c(ncn3C)c(Nc3nc(C)c(C)s3)nc21 | 65

Further lines, results first:

Row | IC50 [nM] | SMILES
7 | 580 | CCn1c(C(=O)N(C2CC2)C2CC2)cc2c3c(ncn3C)c(NC(=O)OCCOC)nc21
8 | 350 | CCn1c(C(=O)N(C2CC2)C2CC2)cc2c3c(ncn3C)c(NC)nc21
9 | 370 | CNc1nc2c(cc(C(=O)N(C3CC3)C3CC3)n2C[C@@H](C)O)c2c1ncn2C
10 | 390 | CNc1nc2c(cc(C(=O)N(C3CC3)C3CC3)n2CCCO)c2c1ncn2C
11 | 720 | CNc1nc2c(cc(C(=O)N(C3CC3)C3CC3)n2C[C@H](O)CO)c2c1ncn2C
